Laboratory results from paper PMC6287471 (International Journal for Parasitology: Drugs and Drug …, 2018).
Where a name gives a salt, the structure may show the parent alone.

Legend:
Assay type in all cases: cell-based
Hco-ACC-2 W248Y = molecular target: T1, Hco-ACC-2 W248Y (Haemonchus contortus, UniProt A0A219KWM7, W248Y); assay: Two-electrode voltage clamp of Hco-ACC-2 W248Y mutant in Xenopus laevis oocytes
T1 sequence (A0A219KWM7 18-443 W248Y): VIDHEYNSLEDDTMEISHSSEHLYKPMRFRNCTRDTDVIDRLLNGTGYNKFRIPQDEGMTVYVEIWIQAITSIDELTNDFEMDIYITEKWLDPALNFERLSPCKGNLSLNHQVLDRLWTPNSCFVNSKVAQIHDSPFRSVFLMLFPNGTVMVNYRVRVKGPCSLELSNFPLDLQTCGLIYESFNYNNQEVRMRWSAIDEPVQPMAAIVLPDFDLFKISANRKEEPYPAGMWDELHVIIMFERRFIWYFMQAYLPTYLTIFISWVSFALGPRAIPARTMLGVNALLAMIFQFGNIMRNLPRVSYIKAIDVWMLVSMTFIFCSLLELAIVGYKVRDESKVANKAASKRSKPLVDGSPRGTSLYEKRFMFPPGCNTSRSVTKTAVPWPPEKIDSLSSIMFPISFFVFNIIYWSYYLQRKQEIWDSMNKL

Hco-ACC-2 F200W/W248F = molecular target: T2, Hco-ACC-2 F200W/W248F (Haemonchus contortus, UniProt A0A219KWM7, F200W/W248F)
T2 sequence (A0A219KWM7 18-443 F200W/W248F): T1 sequence (A0A219KWM7 18-443 W248Y)

Hco-ACC-2 W248F = molecular target: T3, Hco-ACC-2 W248F (Haemonchus contortus, UniProt A0A219KWM7, W248F); assay: Two-electrode voltage clamp of Hco-ACC-2 W248F mutant in Xenopus laevis oocytes
T3 sequence (A0A219KWM7 18-443 W248F): T1 sequence (A0A219KWM7 18-443 W248Y)

Hco-ACC-2 F200W = molecular target: T4, Hco-ACC-2 F200W (Haemonchus contortus, UniProt A0A219KWM7, F200W); assay: Two-electrode voltage clamp of Hco-ACC-2 F200W mutant in Xenopus laevis oocytes
T4 sequence (A0A219KWM7 18-443 F200W): T1 sequence (A0A219KWM7 18-443 W248Y)

Hco-ACC-2 F200Y = molecular target: T5, Hco-ACC-2 F200Y (Haemonchus contortus, UniProt A0A219KWM7, F200Y); assay: Two-electrode voltage clamp of Hco-ACC-2 F200Y mutant in Xenopus laevis oocytes
T5 sequence (A0A219KWM7 18-443 F200Y): T1 sequence (A0A219KWM7 18-443 W248Y)

[1] = EC50 ± standard error, F200Y, F200Y mutant, n ≥ 5 oocytes

| SMILES | EC50 (Hco-ACC-2 W248Y) | EC50 (Hco-ACC-2 F200W/W248F) | EC50 (Hco-ACC-2 W248F) | EC50 (Hco-ACC-2 F200W) | EC50 (Hco-ACC-2 F200Y; [1]) | EC50 (Hco-ACC-2 F200Y; EC50, F200Y mutant) |
| --- | --- | --- | --- | --- | --- | --- |
| C[N+](C)(C)CCOC(N)=O [Carbachol, Carbamoylcholine Chloride] | > 1000 µM | > 20000 µM | > 1000 µM | 67 ± 4 µM | 9.7 ± 0.5 µM |  |
| C[N+](C)(C)CCO [Choline, Choline Chloride] | > 1000 µM | > 20000 µM | > 1000 µM | 4770 ± 543 µM | 650 ± 13 µM |  |
| c1ccc([C@H]2CN3CCSC3=N2)cc1 [Levamisole, Levamisole Hydrochloride] | > 1000 µM | > 20000 µM | > 1000 µM |  | 39 ± 3 µM |  |
| CC(=O)OC(C)C[N+](C)(C)C (stereo not drawn) [Methacholine, Acetyl-β-methylcholine Chloride] | > 1000 µM | > 20000 µM | > 1000 µM | 644 ± 84 µM | 20 ± 1 µM |  |
| CN1CCC[C@H]1c1cccnc1 [Nicotine] |  |  |  |  |  | 277 ± 8 µM |
| CN1CCCN=C1/C=C/c1cccs1 [Pyrantel, Pyrantel Citrate Salt] | > 1000 µM | > 20000 µM | > 1000 µM | 160 ± 20 µM | 44 ± 2 µM |  |
| CC(C[N+](C)(C)C)OC(N)=O (stereo not drawn) [Urecholine, Carbamyl-β-methylcholine chloride] | > 1000 µM | > 20000 µM | > 1000 µM | 2150 ± 215 µM | 81 ± 3 µM |  |
